Experimental data published in ChEMBL document CHEMBL1155864, “N-Acyl-3-amino-5H-furanone derivatives as new inhibitors of LuxR-dependent quorum sensing: Synthesis, biological evaluation and binding mode study” (Bioorg Med Chem Lett, 2008).
Activity calls are given as the source filed them. The calls are words filed in the database; no cut-off is given here.

Assays:
[1] = molecular target: T1, Transcriptional activator protein LuxR (Aliivibrio fischeri, UniProt P12746); test: Inhibition of LuxR-dependent Vibrio fischeri quorum sensing assessed as reduction in 3-oxo-hexanoyihomoserine-induced bioluminescence
T1 sequence (P12746 whole entry): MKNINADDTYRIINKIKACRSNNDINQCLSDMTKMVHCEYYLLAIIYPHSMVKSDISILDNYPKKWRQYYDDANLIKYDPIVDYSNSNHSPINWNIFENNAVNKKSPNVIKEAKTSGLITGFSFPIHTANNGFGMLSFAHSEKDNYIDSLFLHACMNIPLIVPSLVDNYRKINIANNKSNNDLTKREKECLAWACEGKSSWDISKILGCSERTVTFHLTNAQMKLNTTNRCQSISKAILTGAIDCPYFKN

[2] = molecular target: T2, Transcriptional activator protein LuxR (Aliivibrio fischeri) (UniProt P12746); test: Inhibition of LuxR-dependent Vibrio fischeri quorum sensing assessed as reduction in 3-oxo-hexanoyihomoserine-induced bioluminescence upto 100 uM
T2 sequence (whole entry): T1 sequence (P12746 whole entry)

IC50 [1] [µM] | Activity [2] | Compound
6.9 | – | CCCCCC(=O)NC1=C(Cl)COC1=O
85 | – | CCCCCC(=O)NC1=CCOC1=O
84 | – | O=C(CCCc1ccccc1)NC1=C(Br)COC1=O
– | inactive | O=C(CCCc1ccccc1)NC1=CCOC1=O
6.5 | – | CCCCCC(=O)NC1=C(Br)COC1=O
55 | – | CCCC(=O)CC(=O)NC1=CCOC1=O
